{"source": "patent US7563805B2", "about": "“Tri-, tetra-substituted-3-aminopyrrolidine derivative” (Daiichi Pharmaceutical Co., Ltd., priority 2005, dated 2009);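 on Excretion rate in urine, times higher than Comparative compound 1: fasted 7-week-old rats, three per group, tissue sampled up to 8 h post-dose and urine collected over 0–24 h, with conjugates measured after alkaline hydrolysis, concentrations by LC-MS/MS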;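 on Recovery (%) in urine in relation to the amount administered, Recovery (%) including conjugate: fasted 7-week-old rats, three per group, tissue sampled up to 8 h post-dose and urine collected over 0–24 h, with conjugates measured after alkaline hydrolysis, concentrations by LC-MS/MS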;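 on Tissue AUC0-8 h, Kidney: fasted 7-week-old rats, three per group, tissue sampled up to 8 h post-dose and urine collected over 0–24 h, with conjugates measured after alkaline hydrolysis, concentrations by LC-MS/MS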;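 on serum concentration and tissue concentration, times higher than Comparative compound 1: fasted 7-week-old rats, three per group, tissue sampled up to 8 h post-dose and urine collected over 0–24 h, with conjugates measured after alkaline hydrolysis, concentrations by LC-MS/MS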", "key": {"hERG K+ channel": {"target": "hERG K+ channel (Homo sapiens, UniProt Q12809)", "sequence (Q12809 whole entry)": "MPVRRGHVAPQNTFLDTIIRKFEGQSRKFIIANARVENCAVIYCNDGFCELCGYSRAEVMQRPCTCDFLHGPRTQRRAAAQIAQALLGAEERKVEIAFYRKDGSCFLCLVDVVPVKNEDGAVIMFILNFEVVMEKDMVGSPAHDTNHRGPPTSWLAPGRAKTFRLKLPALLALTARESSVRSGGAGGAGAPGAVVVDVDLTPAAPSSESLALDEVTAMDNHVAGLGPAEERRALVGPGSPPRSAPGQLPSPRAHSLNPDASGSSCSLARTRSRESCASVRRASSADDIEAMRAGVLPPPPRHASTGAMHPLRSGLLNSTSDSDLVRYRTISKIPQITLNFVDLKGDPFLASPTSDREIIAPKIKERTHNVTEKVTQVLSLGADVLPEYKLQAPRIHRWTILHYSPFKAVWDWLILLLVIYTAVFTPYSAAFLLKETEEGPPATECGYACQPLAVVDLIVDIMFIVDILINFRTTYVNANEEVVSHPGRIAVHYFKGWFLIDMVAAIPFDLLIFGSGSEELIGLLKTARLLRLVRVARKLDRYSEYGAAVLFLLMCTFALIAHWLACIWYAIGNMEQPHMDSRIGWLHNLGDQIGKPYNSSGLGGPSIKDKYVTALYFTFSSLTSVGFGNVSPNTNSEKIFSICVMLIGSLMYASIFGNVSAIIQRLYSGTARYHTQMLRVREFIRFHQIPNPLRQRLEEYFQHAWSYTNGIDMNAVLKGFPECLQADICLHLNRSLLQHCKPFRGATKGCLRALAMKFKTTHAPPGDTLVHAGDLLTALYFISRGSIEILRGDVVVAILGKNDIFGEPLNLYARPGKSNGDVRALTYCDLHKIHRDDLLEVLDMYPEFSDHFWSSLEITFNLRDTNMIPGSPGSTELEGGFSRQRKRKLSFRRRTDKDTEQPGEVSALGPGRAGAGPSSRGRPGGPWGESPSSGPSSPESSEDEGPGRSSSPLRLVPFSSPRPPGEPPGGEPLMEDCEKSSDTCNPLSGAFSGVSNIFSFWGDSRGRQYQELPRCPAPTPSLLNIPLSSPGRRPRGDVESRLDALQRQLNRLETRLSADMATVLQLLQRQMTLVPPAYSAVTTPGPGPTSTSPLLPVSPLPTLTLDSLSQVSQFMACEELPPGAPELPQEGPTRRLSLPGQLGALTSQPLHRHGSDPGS", "assay": "hERG-K^+ channel blocking effect"}, "S. marscecens, 10100": {"system": "S. marscecens, 10100", "assay": "antibacterial activity (MIC), standard method of Japanese Society of Chemotherapy"}, "S. aureus, 209P": {"system": "S. aureus, 209P", "assay": "antibacterial activity (MIC), standard method of Japanese Society of Chemotherapy", "details": "Staphylococcus aureus"}, "[1]": {"assay": "potential convulsant activity upon intracisternal administration, with and without 4-biphenyl acetic acid (BPAA)", "details": "5 μg/5 μL/mouse i. cist", "method": "The potential convulsant activity upon intracisternal administration to mouse was also evaluated for the concomitant and administration with 4-biphenyl acetic acid (BPAA: an active metabolite of fenbufen) and in the absence of such concomitant administration. The evaluation was conducted by using 4 week old male Slc:ddY mice (6 animals per group) and intracisternally administering the test substance at a dose of 5 μg/5 μL/mouse (solvent, 0.5% lactic acid). Monitoring of the animals for the convulsion and death was started immediately after the administration and continued to 30 minutes after the administration. When used concomitantly with the BPAA, BPAA was suspended in 5% CMC, and 400 mg/kg was orally administered at a solution amount of 10 mL/kg, and the test substance was intracisternally administered 30 minutes after the BPAA."}, "[2]": {"details": "rat, in vivo, po"}, "E. coli strain E77156": {"system": "E. coli strain E77156", "assay": "rat simple cystitis model (E. coli)", "format": "in vivo"}, "E. faecalis, ATCC 19433": {"system": "E. faecalis, ATCC 19433", "assay": "antibacterial activity (MIC), standard method of Japanese Society of Chemotherapy", "details": "E. faecalis"}, "CYP3A4": {"target": "CYP3A4 (Homo sapiens, UniProt P08684)", "sequence (P08684 whole entry)": "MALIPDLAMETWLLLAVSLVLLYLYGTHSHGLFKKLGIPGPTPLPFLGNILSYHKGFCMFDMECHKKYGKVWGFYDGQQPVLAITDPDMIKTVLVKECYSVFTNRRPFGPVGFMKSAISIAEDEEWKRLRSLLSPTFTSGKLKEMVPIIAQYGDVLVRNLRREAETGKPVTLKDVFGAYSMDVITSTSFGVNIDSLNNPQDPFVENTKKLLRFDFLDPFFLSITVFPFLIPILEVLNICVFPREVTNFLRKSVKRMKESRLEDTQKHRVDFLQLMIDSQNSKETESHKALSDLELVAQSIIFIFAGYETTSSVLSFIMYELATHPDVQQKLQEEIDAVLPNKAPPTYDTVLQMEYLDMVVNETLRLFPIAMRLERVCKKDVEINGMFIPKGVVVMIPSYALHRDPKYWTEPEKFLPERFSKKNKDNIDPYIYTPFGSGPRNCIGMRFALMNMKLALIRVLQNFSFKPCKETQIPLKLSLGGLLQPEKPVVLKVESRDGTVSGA", "assay": "mechanism-based inhibition (MBI) of CYP3A4, hydroxylation at position 1 of midazolam", "details": "inhibition of midazolam 1-hydroxylation; dependence on preincubation time and drug concentration (FIG. 1)", "method": "Mechanism-based inhibition (MBI) of CYP3A4 was evaluated by using inhibition of hydroxylation at position 1 of midazolam."}, "[3]": {"details": "(with BPAA 400 mg/kg oral, 30 minutes before)"}}}
{"smiles": "COc1c(N2CC(C)(N)C3(CC3)C2)c(F)cc2c(=O)c(C(=O)O)cn([C@@H]3C[C@@H]3F)c12", "note": "(stereo partly drawn) [Example 9, 7-(7-Amino-7-methyl-5-azaspiro[2.4]heptan-5-yl)-6-fluoro-1-[(1R,2S)-2-fluorocyclopropyl]-8-methoxy-1,4-dihydro-4-oxoquinoline-3-carboxylic acid]", "values": [{"measurement": "inhibition at 30 µM", "setting": "hERG K+ channel", "result": "7.4 ± 4.5", "unit": "%"}, {"measurement": "inhibition at 100 µM", "setting": "hERG K+ channel", "result": "10.2 ± 5.4", "unit": "%"}, {"measurement": "inhibition at 300 µM", "setting": "hERG K+ channel", "result": "20.1 ± 7.4", "unit": "%"}, {"measurement": "MIC", "setting": "S. marscecens, 10100", "result": 0.1, "unit": "mg/L"}, {"measurement": "MIC", "setting": "S. aureus, 209P", "result": 0.025, "unit": "mg/L"}, {"measurement": "Number of animals which showed convulsion", "setting": "[1]; [3]", "result": "0/6 (0/6)"}, {"measurement": "number of dead animals", "setting": "[1]; [3]", "result": "0/6 (0/6)"}, {"measurement": "Number of animals which showed convulsion", "setting": "[1]; (without BPAA)", "result": "0/6 (0/6)"}, {"measurement": "number of dead animals", "setting": "[1]; (without BPAA)", "result": "0/6 (0/6)"}, {"measurement": "Excretion rate in urine, times higher than Comparative compound 1", "setting": "[2]; male, Crj:CD IGS", "result": "about 1.5 times"}, {"measurement": "serum concentration and tissue concentration, times higher than Comparative compound 1", "setting": "[2]; male, Crj:CD IGS", "result": "about 2 times"}, {"measurement": "Recovery (%) in urine in relation to the amount administered, Recovery (%) including conjugate", "setting": "[2]; male, Crj:CD IGS, 5 mg/kg", "result": 32.0, "unit": "%"}, {"measurement": "Tissue AUC0-8 h, Kidney", "setting": "[2]; male, Crj:CD IGS, 5 mg/kg", "result": 27.8, "unit": "µg·h/mL"}, {"measurement": "Tissue AUC0-8 h, Liver", "setting": "[2]; male, Crj:CD IGS, 5 mg/kg", "result": 32.1, "unit": "µg·h/mL"}, {"measurement": "Tissue AUC0-8 h, Lung", "setting": "[2]; male, Crj:CD IGS, 5 mg/kg", "result": 13.7, "unit": "µg·h/mL"}, {"measurement": "Tissue Cmax, Kidney", "setting": "[2]; male, Crj:CD IGS, 5 mg/kg", "result": 9.88, "unit": "µg/g"}, {"measurement": "Tissue Cmax, Liver", "setting": "[2]; male, Crj:CD IGS, 5 mg/kg", "result": 13.7, "unit": "µg/g"}, {"measurement": "Tissue Cmax, Lung", "setting": "[2]; male, Crj:CD IGS, 5 mg/kg", "result": 3.86, "unit": "µg/g"}, {"measurement": "AUC value, times higher than Comparative compound 1", "setting": "[2]", "result": "1.5-2 times"}, {"measurement": "therapeutic effect compared with Comparative Compound 1", "setting": "E. coli strain E77156; oral single dose 5 mg/kg/day", "result": "significantly stronger than the Comparative Compound 1"}, {"measurement": "number of bacteria in the bladder", "setting": "E. coli strain E77156; oral single dose 20 or 80 mg/kg/day, next day of administration (FIG. 4)", "result": "significant decrease in the number of bacteria"}, {"measurement": "MIC", "setting": "E. faecalis, ATCC 19433", "result": 0.2, "unit": "mg/L"}, {"measurement": "mechanism-based inhibition (MBI) of CYP3A4", "setting": "CYP3A4", "result": "weak inhibition"}]}
